Measurements reported in ChEMBL document CHEMBL4038296, “A bromopyrrole-containing diterpene alkaloid from the Okinawan marine sponge Agelas nakamurai activates the insulin pathway in Huh-7 human hepatoma cells by inhibiting protein tyrosine phosphatase 1B” (Bioorg Med Chem Lett, 2017).
Calls of active or inactive are those of the source. The calls are words filed in the database; no cut-off is given here.

Columns and labels:
[1] = target: RAC-alpha serine/threonine-protein kinase (Homo sapiens) (UniProt P31749); assay: Induction of Akt phosphorylation in human Huh7 cells measured after 2 hrs by Western blot method; format: cell-based
[2] = target: T1, Tyrosine-protein phosphatase non-receptor type 1 (Homo sapiens) (UniProt P18031); assay: Inhibition of PTP1B in human Huh7 cells assessed as increase in insulin-stimulated Akt phosphorylation preincubated for 1 to 2 hrs followed by insulin addition measured after 5 mins by Western blot method; format: cell-based
T1 sequence (whole entry): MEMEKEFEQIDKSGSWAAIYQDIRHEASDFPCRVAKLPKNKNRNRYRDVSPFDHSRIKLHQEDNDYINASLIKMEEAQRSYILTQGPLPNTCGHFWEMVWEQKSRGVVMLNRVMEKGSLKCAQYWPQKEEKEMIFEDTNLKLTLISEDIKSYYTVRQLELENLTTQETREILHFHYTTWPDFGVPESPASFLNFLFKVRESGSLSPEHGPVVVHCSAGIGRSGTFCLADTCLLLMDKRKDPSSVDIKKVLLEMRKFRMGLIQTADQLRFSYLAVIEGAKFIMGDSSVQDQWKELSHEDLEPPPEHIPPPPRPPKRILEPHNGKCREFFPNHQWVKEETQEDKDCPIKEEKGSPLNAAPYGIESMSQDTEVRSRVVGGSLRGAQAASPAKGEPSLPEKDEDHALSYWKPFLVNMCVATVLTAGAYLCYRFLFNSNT

[3] = target: RAC-alpha serine/threonine-protein kinase (Homo sapiens) (UniProt P31749); assay: Induction of Akt phosphorylation in human Huh7 cells up to 50 uM measured after 2 hrs by Western blot method; format: cell-based
[4] = target: T2, Receptor-type tyrosine-protein phosphatase C (Homo sapiens, UniProt P08575); assay: Inhibition of human recombinant CD45 using pNPP as substrate preincubated for 10 mins followed by substrate addition measured after 30 mins
T2 sequence (P08575 whole entry): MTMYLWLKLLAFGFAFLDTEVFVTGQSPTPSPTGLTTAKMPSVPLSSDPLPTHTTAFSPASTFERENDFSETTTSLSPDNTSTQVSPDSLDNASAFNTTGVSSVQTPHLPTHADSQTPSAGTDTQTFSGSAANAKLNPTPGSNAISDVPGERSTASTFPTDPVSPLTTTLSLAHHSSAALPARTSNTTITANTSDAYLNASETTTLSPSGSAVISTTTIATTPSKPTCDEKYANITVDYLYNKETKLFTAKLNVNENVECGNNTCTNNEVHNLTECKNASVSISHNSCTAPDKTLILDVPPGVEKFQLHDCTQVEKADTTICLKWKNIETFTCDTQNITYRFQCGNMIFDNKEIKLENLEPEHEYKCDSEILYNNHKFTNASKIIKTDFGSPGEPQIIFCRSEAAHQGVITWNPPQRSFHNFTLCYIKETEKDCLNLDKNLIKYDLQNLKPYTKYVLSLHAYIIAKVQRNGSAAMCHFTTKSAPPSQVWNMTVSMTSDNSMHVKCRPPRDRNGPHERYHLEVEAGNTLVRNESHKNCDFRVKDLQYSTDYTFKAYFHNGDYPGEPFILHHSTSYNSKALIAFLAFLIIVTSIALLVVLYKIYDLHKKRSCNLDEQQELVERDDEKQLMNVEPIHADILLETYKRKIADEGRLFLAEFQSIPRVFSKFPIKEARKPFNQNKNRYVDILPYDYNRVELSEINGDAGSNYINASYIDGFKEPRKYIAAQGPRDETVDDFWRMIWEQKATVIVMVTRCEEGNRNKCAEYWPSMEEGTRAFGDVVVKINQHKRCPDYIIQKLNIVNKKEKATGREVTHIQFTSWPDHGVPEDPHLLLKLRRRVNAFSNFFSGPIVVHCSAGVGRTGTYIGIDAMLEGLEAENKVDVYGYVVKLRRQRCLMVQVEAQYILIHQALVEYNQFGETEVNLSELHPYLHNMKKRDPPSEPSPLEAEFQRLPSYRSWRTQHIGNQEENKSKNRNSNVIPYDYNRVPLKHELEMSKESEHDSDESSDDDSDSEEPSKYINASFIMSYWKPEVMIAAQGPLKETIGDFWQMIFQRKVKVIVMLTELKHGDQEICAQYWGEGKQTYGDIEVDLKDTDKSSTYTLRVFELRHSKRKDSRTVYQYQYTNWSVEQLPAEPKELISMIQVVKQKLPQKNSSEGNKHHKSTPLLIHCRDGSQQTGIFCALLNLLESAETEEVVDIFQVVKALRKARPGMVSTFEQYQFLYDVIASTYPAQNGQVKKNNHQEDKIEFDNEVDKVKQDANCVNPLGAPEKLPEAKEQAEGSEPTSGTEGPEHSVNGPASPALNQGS

[5] = target: T3, Tyrosine-protein phosphatase non-receptor type 2 (Homo sapiens, UniProt P17706); assay: Inhibition of human recombinant TCPTP (1 to 317 residues) expressed in Escherichia coli using pNPP as substrate preincubated for 10 mins followed by substrate addition measured after 30 mins
T3 sequence (P17706 whole entry): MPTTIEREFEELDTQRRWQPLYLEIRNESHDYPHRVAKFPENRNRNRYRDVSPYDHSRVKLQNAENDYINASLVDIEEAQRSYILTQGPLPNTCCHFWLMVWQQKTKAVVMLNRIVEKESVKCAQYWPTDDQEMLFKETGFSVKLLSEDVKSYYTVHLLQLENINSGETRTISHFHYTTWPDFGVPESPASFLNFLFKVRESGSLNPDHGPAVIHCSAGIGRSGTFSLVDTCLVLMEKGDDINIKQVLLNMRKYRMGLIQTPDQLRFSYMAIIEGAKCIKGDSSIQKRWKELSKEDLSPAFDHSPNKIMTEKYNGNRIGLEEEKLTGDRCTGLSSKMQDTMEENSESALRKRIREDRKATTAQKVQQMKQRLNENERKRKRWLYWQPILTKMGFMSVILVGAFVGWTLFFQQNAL

[6] = target: Dual specificity protein phosphatase 3 (Homo sapiens, UniProt P51452); assay: Inhibition of human recombinant VHR expressed in Escherichia coli using pNPP as substrate preincubated for 10 mins followed by substrate addition measured after 30 mins
[7] = target: T4, Tyrosine-protein phosphatase non-receptor type 1 (Homo sapiens, UniProt P18031); assay: Inhibition of human recombinant PTP1B (1 to 322 residues) expressed in Escherichia coli using pNPP as substrate preincubated for 10 mins followed by substrate addition measured after 30 mins
T4 sequence (P18031 whole entry): T1 sequence (whole entry)

[8] = target: RAC-alpha serine/threonine-protein kinase (Homo sapiens) (UniProt P31749); assay: Activation of AKT in human Huh7 cells assessed as increase in insulin-stimulated Akt phosphorylation preincubated for 1 to 2 hrs followed by insulin addition measured after 5 mins by Western blot method; format: cell-based

Chain of RAC-alpha serine/threonine-protein kinase (Homo sapiens) (P31749 whole entry): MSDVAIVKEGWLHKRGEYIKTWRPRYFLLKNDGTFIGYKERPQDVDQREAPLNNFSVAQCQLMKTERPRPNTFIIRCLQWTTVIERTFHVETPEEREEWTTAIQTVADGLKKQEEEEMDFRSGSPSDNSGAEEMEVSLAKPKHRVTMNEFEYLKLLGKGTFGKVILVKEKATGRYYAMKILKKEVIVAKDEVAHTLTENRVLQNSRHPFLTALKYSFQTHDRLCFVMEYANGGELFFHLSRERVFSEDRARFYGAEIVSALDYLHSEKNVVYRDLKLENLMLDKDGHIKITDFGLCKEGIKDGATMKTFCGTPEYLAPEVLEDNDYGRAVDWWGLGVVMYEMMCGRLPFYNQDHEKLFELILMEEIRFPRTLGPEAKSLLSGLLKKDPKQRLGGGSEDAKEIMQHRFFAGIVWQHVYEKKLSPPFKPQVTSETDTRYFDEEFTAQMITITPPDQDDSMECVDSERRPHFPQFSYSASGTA
Chain of Dual specificity protein phosphatase 3 (P51452 whole entry, the tested form may be a part): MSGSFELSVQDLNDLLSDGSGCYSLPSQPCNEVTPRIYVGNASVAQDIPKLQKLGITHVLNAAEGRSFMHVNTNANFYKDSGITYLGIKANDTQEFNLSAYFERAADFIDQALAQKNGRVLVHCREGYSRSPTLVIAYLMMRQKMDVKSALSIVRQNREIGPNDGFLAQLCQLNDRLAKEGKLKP

Activity [1]	inhibition [2]	Activity [3]	IC50 [4]	IC50 [5]	IC50 [6]	IC50 [7]	Activity [8]	SMILES
Dose-dependent effect	Dose-dependent effect	inactive	–	–	–	–	–	C/C(=C\Cn1c[n+](C)c2ncnc(N)c21)CC[C@]1(C)[C@@H](C)CC[C@@]2(C)C(COC(=O)c3cc(Br)c[nH]3)=CCC[C@@H]12
–	–	–	> 16 µM	> 16 µM	13 µM	15 µM	–	C/C(=C\C[n+]1cn(C)c2ncnc(N)c21)CC[C@]1(C)[C@@H](C)CC[C@@]2(C)C(COC(=O)c3cc(Br)c[nH]3)=CCC[C@@H]12
Dose-dependent effect	–	inactive	> 19 µM	> 19 µM	> 19 µM	> 19 µM	Dose-dependent effect	C/C(=C\Cn1c[n+](C)c2ncnc(N)c21)CC[C@]1(C)[C@@H](C)CC[C@@]2(C)C(COC(=O)c3ccc[nH]3)=CCC[C@@H]12
